Consider eight compounds from PubChem BioAssay (NCI).

Holding throughout (assay): NCI anticancer screen, dose series, 48 h
Test [1] deals with HCC-2998 colon.
Test [2] relates to HCT-15 colon.
For test [3], the system named is HS 578T breast.
Test [4] deals with MDA-MB-435.
The subject of test [5] is SF-268 CNS.
Test [6] concerns SF-539 CNS.
The test system of test [7] is SK-MEL-28 melanoma.
Test [8] relates to SNB-75 CNS.
Test [9] has as its system T-47D breast.
Test [10] deals with UACC-257 melanoma.

The structures appear in SMILES notation.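 Dose response: 5 concentrations. Exposure: 48 h. Format: 96-well plates. Endpoint: linear interpolation; highest concentration if not reached. Abbreviation: GI50, concentration required for 50% inhibition of growth. TGI denotes the concentration required for complete inhibition of growth.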 Some results are limits rather than exact numbers.

Consider `COc1cc2c(cc1OCCCCC(=O)Nc1cc3c4ccccc4ccc3c3ccccc13)N=C[C@@H]1CCCN1C2=O`, for which the GI50 in test [1] was 10.9 µM; in test [2], 12.5 µM; in [3] it was 17.7 µM; in test [4], 5.44 µM; in test [5], 2.67 µM; in test [6], 2.22 µM. Moreover, the GI50 was 3.41 µM in test [7], 19 µM in test [8], 11.1 µM in test [9] and 7.77 µM in [10]. In addition, the TGI in test [1] was 33.5 µM; in test [2] it was greater than 52.6 µM; in [3], greater than 100 µM; in test [4], greater than 92.9 µM; in test [5], 15 µM; in [6] it was 9.06 µM. For the same compound, the TGI in test [7] was 12.2 µM; in test [8] it was greater than 52.9 µM; in test [9], greater than 100 µM; in test [10], 18.4 µM.

For the compound `COc1ccc(C(=O)c2cc(C)c(OC)c(C)c2)cc1OC(=O)CCl`, the GI50 in test [1] was 0.0391 µM; in test [2], less than 0.01 µM; in test [3] it was less than 0.01 µM; in test [4], less than 0.01 µM; in [5] it was less than 0.011 µM; in test [6], less than 0.01 µM. For the same compound, the GI50 in test [7] was 0.0396 µM; in [8] it was less than 0.01 µM; in [9] it was 10.5 µM; in test [10], 19 µM. In addition, the TGI was greater than 79.2 µM in test [1]; greater than 100 µM in [2]; 98.5 µM in [3]; less than 0.01 µM in [4]; greater than 100 µM in [5]; less than 0.01 µM in [6]. In addition, the TGI in test [7] was greater than 100 µM; in test [8], greater than 100 µM; in test [9], 67.9 µM; in test [10], greater than 100 µM.

For `COc1ccc(C(=O)c2cc(OC)c(OC)c(OC)c2)cc1/C=C/C(=O)c1ccc(F)cc1`, the GI50 was 7.29 µM in [1]; 2.14 µM in test [2]; 4.48 µM in test [3]; 2.88 µM in test [4]; 3.86 µM in [5]; 1.98 µM in test [6]. Moreover, the GI50 in test [7] was 2.48 µM; in test [8] it was 3.18 µM; in [9], 3.54 µM; in test [10], 12.3 µM. Besides, the TGI in test [1] was 22.6 µM; in test [2], 6.96 µM; in [3], greater than 100 µM; in test [4], 13.6 µM; in test [5] it was 16.1 µM; in test [6], 4.3 µM. Moreover, the TGI in test [7] is 7.25 µM; in test [8] it was 20.7 µM; in [9], 27.8 µM; in [10], 49.7 µM.

As to `CCCCC(CC)COC(=O)C[N+](C)(C)CCOC(c1ccccc1)c1ccccc1` (stereo not given), the GI50 is 1.75 µM in test [1]; 13.8 µM in [2]; 2.08 µM in [3]; 1.71 µM in test [4]; 2.01 µM in test [5]; 2.32 µM in test [6]. The GI50 is 1.8 µM in test [7], 2.13 µM in test [8], 1.91 µM in test [9] and 2.56 µM in [10]. Besides, the TGI in [1] stood at 3.29 µM; in test [2], 31.2 µM; in test [3], 6.68 µM; in test [4], 3.09 µM; in test [5], 4.77 µM; in [6], 5.27 µM. Moreover, the TGI was determined as 3.31 µM in test [7], 5.27 µM in [8], 4.44 µM in test [9] and 7.6 µM in test [10].

With `NS(=O)(=O)c1ccc(-c2ccc3c(NC(=O)C4CC4)n[nH]c3c2)cc1`, the GI50 in test [1], in test [2], in test [3], in test [4], in [5] and in [6] was greater than 25 µM each time. Moreover, the GI50 in [7], in test [8], in test [9] and in test [10] was greater than 25 µM each time. Besides, the TGI in [1], in test [2], in [3], in test [4], in test [5] and in test [6] was greater than 25 µM each time. Besides, the TGI in test [7], in [8], in test [9] and in [10] was greater than 25 µM each time.

Turning to `C=CCCCCC/C=C\[C@@H](O)C#CC#C/C=C/CO`, the GI50 in [1] is greater than 100 µM; in test [2] it was greater than 100 µM; in test [3], greater than 100 µM; in test [4], 68.8 µM; in test [5], 39 µM; in test [6], greater than 100 µM. The GI50 in test [7] was 0.867 µM; in [8], 0.536 µM; in test [9], greater than 100 µM; in test [10], greater than 100 µM. Besides, the TGI in test [1], in test [2], in test [3], in test [4], in test [5] and in [6] was greater than 100 µM throughout. Moreover, the TGI in [7], in test [8], in test [9] and in [10] was greater than 100 µM in each case.

With `O=c1cc(NCC(O)CN2CCCC2)n(Cc2ccccc2)c(=O)n1Cc1ccccc1` (stereo not given), the GI50 in [1] is 25.8 µM; in test [2], 50.9 µM; in test [3], 37 µM; in test [4], 26.7 µM; in [5], 47.5 µM; in [6], greater than 100 µM. Moreover, the GI50 is 16.7 µM in test [7], 25.3 µM in test [8], 52.4 µM in test [9] and 31.9 µM in test [10]. Further, the TGI is 77.7 µM in [1]; greater than 100 µM in [2]; greater than 100 µM in [3]; 65.8 µM in [4]; greater than 100 µM in test [5]; greater than 100 µM in [6]. Moreover, the TGI was 34.6 µM in test [7], 81.5 µM in [8], greater than 100 µM in test [9] and 85.6 µM in [10].

Regarding `CC1=C(/C=C/Cl)CC(Cl)C(C)(Cl)C1` (stereo not given), the TGI in test [1], in test [2], in [3], in test [4], in test [5] and in test [6] was greater than 100 µM throughout. Also, the TGI in test [7], in [8], in [9] and in test [10] was greater than 100 µM in each case.
